ChEMBL document CHEMBL1137926, “S-(2-(acylamino)phenyl) 2,2-dimethylpropanethioates as CETP inhibitors” (Bioorg Med Chem Lett, 2004)

target: T1, Cholesteryl ester transfer protein (Homo sapiens, UniProt P11597); assay: In vitro inhibition of CETP activity was assessed by measuring the rate of [3H]- cholesteryl ester transfer from HDL to apoprotein B-containing lipoproteins in human plasma; format: cell-free
T1 sequence (P11597 whole entry): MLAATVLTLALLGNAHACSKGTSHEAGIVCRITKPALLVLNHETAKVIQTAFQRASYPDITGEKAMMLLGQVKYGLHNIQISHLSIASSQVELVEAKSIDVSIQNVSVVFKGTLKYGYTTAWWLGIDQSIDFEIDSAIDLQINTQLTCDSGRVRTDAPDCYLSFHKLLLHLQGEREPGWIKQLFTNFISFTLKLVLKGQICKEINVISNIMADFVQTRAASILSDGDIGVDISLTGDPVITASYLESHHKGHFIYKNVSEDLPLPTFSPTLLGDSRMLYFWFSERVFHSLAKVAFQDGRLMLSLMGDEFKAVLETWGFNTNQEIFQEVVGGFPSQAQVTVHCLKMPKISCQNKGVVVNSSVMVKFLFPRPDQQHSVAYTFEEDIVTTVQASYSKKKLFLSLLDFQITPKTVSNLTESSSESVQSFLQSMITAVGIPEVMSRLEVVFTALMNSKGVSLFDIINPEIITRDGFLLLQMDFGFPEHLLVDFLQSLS

Compound | IC50 [µM]
CC(C)(C)C(=O)Sc1cc(F)ccc1NC(=O)C1(C)CCCCC1 | 78
CC(C)CCC1(C(=O)Nc2ccc(Cl)cc2SC(=O)C(C)(C)C)CCCCC1 | 10
CC(C)(C)C(=O)Sc1c(F)cccc1NC(=O)C1(C)CCCCC1 | > 300
COc1ccc(SC(=O)C(C)(C)C)c(NC(=O)C2(C)CCCCC2)c1 | > 300

Results, then the compound that gave them:

IC50 [µM] | Compound
70 | CC(C)(C)C(=O)Sc1ccc(F)cc1NC(=O)C1(C)CCCCC1
13 | CC(C)CCC1(C(=O)Nc2cc(Cl)ccc2SC(=O)C(C)(C)C)CCCCC1
13 | CC(C)CCC1(C(=O)Nc2cc(C(F)(F)F)ccc2SC(=O)C(C)(C)C)CCCCC1
102 | CC(C)(C)C(=O)Sc1ccc(C#N)cc1NC(=O)C1(C)CCCCC1
> 300 | Cc1ccc(SC(=O)C(C)(C)C)c(NC(=O)C2(CCC(C)C)CCCCC2)c1
> 300 | COc1ccc(SC(=O)C(C)(C)C)c(NC(=O)C2(CCC(C)C)CCCCC2)c1
> 300 | CC(C)(C)C(=O)Sc1cc(F)cc(F)c1NC(=O)C1(C)CCCCC1
